Here are results for 8 compounds from ChEMBL document CHEMBL1150107, “Isolation and in vitro antiplasmodial activities of alkaloids from Teclea trichocarpa: in vivo antimalarial activity and X-ray crystal structure of normelicopicine” (J Nat Prod, 2002).

Data set [1] relates to Plasmodium berghei. The experiment in a line: Antimalarial activity as reduced parasitaemia at day 5 against Plasmodium berghei ANKA infected in BALB/c mice (Mus musculus) at 10 mg/kg/day intraperitoneal dose over 4 days. It is filed as functional. Set-up: scale not given: the % may be the effect or the level left.
The subject of data set [2] is Plasmodium falciparum. Briefly: Antiplasmodial activity against chloroquine-resistant Plasmodium falciparum K1 after 48 hrs by LDH activity. It is filed as functional, organism-based. The conditions noted are these: K1, 48 h.
The subject of data set [3] is Plasmodium falciparum. The experiment in a line: Antiplasmodial activity against chloroquine-sensitive Plasmodium falciparum HB3 after 48 hrs by LDH reporter activity. The format is functional, organism-based. The conditions noted are these: HB3, 48 h.
The subject of a further data set is KB. The experiment in a line: Cytotoxicity against human KB cells by alamar blue assay. The format is cell-based.
Data set [4] can be described thus: Selectivity index, ratio of IC50 for human KB cells to IC50 for chloroquine-sensitive Plasmodium falciparum HB3. Conditions: read-out: Ratio IC50. It is filed as toxicity, cell-based.
Data set [5] is described as follows: Selectivity index, ratio of IC50 for human KB cells to IC50 for chloroquine-resistant Plasmodium falciparum K1. The format is toxicity, cell-based. Conditions: read-out: Ratio IC50.
Data set [6] deals with Plasmodium berghei. The experiment in a line: Antimalarial activity as reduced parasitaemia at day 5 against Plasmodium berghei ANKA infected BALB/c mice (Mus musculus) at 25 mg/kg/day intraperitoneal dose over 4 days. Further details: scale not given: the % may be the effect or the level left. It is filed as functional.

The structures appear in SMILES notation.

As usually defined, the IC50 is the concentration needed to halve the response being measured.

In the data set on Plasmodium berghei [1], `CCN(CC)CCCC(C)Nc1ccnc2cc(Cl)ccc12.O=P(O)(O)O.O=P(O)(O)O` (stereo not drawn) [CHLOROQUINE PHOSPHATE] came in with an Activity of 100%.
In the case of `COc1c2c(cc3c1c(=O)c1cccc(OC)c1n3C)OCO2` [TECLEANTHINE], the IC50 in the data set on Plasmodium falciparum [2] came out at 53 µM; in the data set on Plasmodium falciparum [3] it was 23.2 µM.
For `COc1cc2c(c(O)c1OC)c(=O)c1ccccc1n2C` [ARBORININE] the same measures were 9.34 µM and 3.85 µM.
`COc1c(OC)c(OC)c2c(c1OC)c(=O)c1ccccc1n2C` [MELICOPICINE]: the IC50 in the data set with Plasmodium falciparum [2] and with Plasmodium falciparum [3] was greater than 100 µM each time.
Consider `COc1cc([C@@H]2c3cc4c(cc3[C@H](O)[C@H]3COC(=O)[C@H]23)OCO4)cc(OC)c1OC` [PODOFILOX], for which the IC50 with KB worked out at 0.0048 µM.
On to `COc1ccc2c(OC)c3ccoc3nc2c1OC` [SKIMMIANINE], for which the IC50 in the data set on Plasmodium falciparum [2] came out at 59 µM; in the data set on Plasmodium falciparum [3] it was 47.5 µM.
Turning to `COc1c(OC)c(OC)c2c(c1O)c(=O)c1ccccc1n2C` [NORMELICOPICINE], the selectivity ratio in data set [4] is 22; in data set [5], 40. Also, the Activity in the data set on Plasmodium berghei [6] turned out to be 32.1%. The values for the IC50 in the data set on KB, in the data set on Plasmodium falciparum [2] and in the data set with Plasmodium falciparum [3] were greater than 328 µM, 14.7 µM and 8.25 µM, respectively.
Regarding `COc1ccc2c(=O)c3c(OC)c4c(cc3n(C)c2c1OC)OCO4`, the IC50 in the data set on Plasmodium falciparum [2] is 56.9 µM; in the data set with Plasmodium falciparum [3] it was 32.3 µM.
